Reference: patent EP4603105A1, “PHARMACEUTICAL COMPOSITION CONTAINING CYCLIC COMPOUND HAVING SELECTIVE KRAS INHIBITORY EFFECT AGAINST HRAS AND NRAS” (CHUGAI SEIYAKU KABUSHIKI KAISHA, priority 2022, dated 2024)
pIC50, pKd: −log10 of the molar value. Where two headings read alike, the source gives them in different places.

Experiments:
[1] = target: GDP-bound NRAS wild-type protein (Homo sapiens, UniProt P01111); assay: Binding to NRAS by surface plasmon resonance (SPR), KD and KD ratio to KRAS
In short: (§1)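 Recombinant RAS proteins bearing a biotinylated Avi tag and loaded with GDP served as the captured ligand, recaptured fresh every cycle. Binding responses were referenced to an uncoated surface and a buffer-only blank cycle. Dissociation constants were obtained by 1:1 model fitting at 30°C.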

[2] = target: HRAS wild-type protein (Homo sapiens, UniProt P01112); assay: Binding to HRAS by surface plasmon resonance (SPR), KD and KD ratio to KRAS
Sequence of HRAS wild-type protein (P01112 whole entry): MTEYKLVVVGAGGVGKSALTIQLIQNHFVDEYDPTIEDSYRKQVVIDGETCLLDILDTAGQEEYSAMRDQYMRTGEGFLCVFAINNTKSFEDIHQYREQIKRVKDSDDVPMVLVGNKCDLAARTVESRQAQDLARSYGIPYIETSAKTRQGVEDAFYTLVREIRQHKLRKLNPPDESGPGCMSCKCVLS
In short: as §1

[3] = tested on: human lung cancer strain NCI-H441; assay: NCI-H441 cell proliferation inhibitory activity (CellTiter-Glo, 4 days); type: cell-based; settings: read-out: NCl-H441 IC50
In short: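 Signal came from […] measured per well once the reagent was added. Beforehand, cells were cultured at 37°C and 5% carbon dioxide on a compound series serially diluted in dimethyl sulfoxide.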

[4] = target: GDP-bound KRAS wild-type protein (Homo sapiens, UniProt P01116); assay: Binding to KRAS by surface plasmon resonance (SPR), dissociation constant KD
Sequence of GDP-bound KRAS wild-type protein (P01116 1-188 isoform P01116-2): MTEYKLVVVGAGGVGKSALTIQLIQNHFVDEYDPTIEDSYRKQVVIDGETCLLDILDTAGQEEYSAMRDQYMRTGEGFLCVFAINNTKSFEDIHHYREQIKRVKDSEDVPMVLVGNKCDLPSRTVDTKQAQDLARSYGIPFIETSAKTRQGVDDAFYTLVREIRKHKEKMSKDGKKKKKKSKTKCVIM
In short: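 GDP-bound biotin-Avi RAS captured at ~100–300 RU, 30°C, pH 7.4 HBS containing 10 µM GDP, 10 mM MgCl2, 1 mM DTT, 0.01% Tween 20 and 4% DMSO. KD by 1:1 fitting.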

[5] = ratio of KD with respect to GDP-bound NRAS wild-type protein to KD with respect to KRAS
[6] = ratio of KD with respect to HRAS wild-type protein to KD with respect to KRAS
[7] = 50% proliferation inhibitory concentration, four days
[8] = Single Cycle Kinetics, 1:1 binding model
[9] = ratio of KD for GDP-bound NRAS wild-type protein to KD for KRAS
[10] = ratio of KD for HRAS wild-type protein to KD for KRAS

Sequence of GDP-bound NRAS wild-type protein (P01111 whole entry): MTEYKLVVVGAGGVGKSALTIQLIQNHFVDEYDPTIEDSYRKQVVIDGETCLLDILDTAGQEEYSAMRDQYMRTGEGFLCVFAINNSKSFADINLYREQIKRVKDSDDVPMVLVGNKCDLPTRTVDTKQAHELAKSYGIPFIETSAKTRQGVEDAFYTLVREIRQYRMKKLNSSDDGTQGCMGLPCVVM

Structure (SMILES) | NRAS /KRAS [1, 5] | HRAS /KRAS [2, 6] | pIC50 [3, 7] | pKd [4, 8] | NRAS /KRAS [1, 9] | HRAS /KRAS [2, 10] | pIC50 ([3]; NCI-H441 cells, 4 days) | pKd ([4]; Single Cycle Kinetics) | pKd ([4]; 1:1 binding model)
CCCOC[C@H]1C(=O)N[C@@H]([C@@H](C)CC)C(=O)N(C)CC(=O)N(C)[C@H]2C/C=C\CCN(C2=O)[C@@H](Cc2ccc(C)cc2)C(=O)N(C)CC(=O)N[C@@H](CCc2cc(F)c(C(F)(F)F)c(F)c2)C(=O)N2C[C@H](OCC)C[C@H]2C(=O)NC2(CCCC2)C(=O)N(C)[C@@H](C2CCCC2)C(=O)N(C)[C@H](C(=O)N2CCCC2)CC(=O)N1C [PP1401] | A (a compound having 10 or more and less than 20 is denoted as A) | A (a compound having 10 or more and less than 20 is denoted as A) | 7.46 | 9.59 |  |  |  |  | 
CCCN1CC(=O)N(C)[C@H]2C/C=C\CCN(C2=O)[C@@H](Cc2ccc(C(F)F)cc2)C(=O)N(C)CC(=O)N[C@@H](CCc2cc(F)c(C(F)(F)F)c(F)c2)C(=O)N2C[C@H](OC(C)C)C[C@H]2C(=O)N(C)C2(CCC2)C(=O)N(C)[C@@H](C(CC)CC)C(=O)N(C)[C@H](C(=O)N(C)C)CC(=O)N(C)[C@@H](COCC)C(=O)N[C@@H](C2CCCC2)C1=O [PP3498] |  |  |  |  | A (a compound having 10 or more and less than 20 is denoted as A) | A (a compound having 10 or more and less than 20 is denoted as A) | 7.61 | 9.03 | 
CCC[C@H]1C(=O)N[C@H]([C@@H](C)CC)C(=O)N2C[C@@H](OC)C[C@H]2C(=O)N(C)[C@H]2C/C=C\CCN(C2=O)[C@@H](Cc2ccc(C)cc2)C(=O)N(C)CC(=O)N[C@@H](CCc2ccc(C(F)(F)F)c(Cl)c2)C(=O)N2C[C@H](OCC)C[C@H]2C(=O)NC2(CCC2)C(=O)N(C)[C@@H](C2CCCC2)C(=O)N(C)[C@H](C(=O)N(C)C)CC(=O)N1C [PP2552] |  |  |  |  | A (a compound having 10 or more and less than 20 is denoted as A) | B (a compound having 3 or more and less than 10 is denoted as B) | 7.52 |  | 9.55
CCO[C@@H]1C[C@H]2C(=O)NC3(CCC3)C(=O)N(C)[C@@H](C3CCCC3)C(=O)N(C)[C@H](C(=O)N3CCCC3)CC(=O)N(C)[C@@H](CC)C(=O)N[C@@H]([C@@H](C)CC)C(=O)N(C)CC(=O)N(C)[C@H]3C/C=C\CCN(C3=O)[C@@H](CC3CCCCC3)C(=O)N(C)CC(=O)N[C@@H](CCc3cc(F)c(C(F)(F)F)c(F)c3)C(=O)N2C1 [PP1443] | AA (a compound having 20 or more is denoted as AA) | A (a compound having 10 or more and less than 20 is denoted as A) | 7.46 | 9.82 |  |  |  |  | 
CCO[C@@H]1C[C@H]2C(=O)NC3(CC(C)(C)C3)C(=O)N(C)[C@@H](C(CC)CC)C(=O)N(C)[C@H](C(=O)N(C)C)CC(=O)N(C)[C@@H](CC3CC3)C(=O)N[C@@H]([C@@H](C)CC)C(=O)N(C)CC(=O)N(C)[C@H]3C/C=C\CCN(C3=O)[C@@H](CC3CCC(F)(F)CC3)C(=O)N(C)CC(=O)N[C@@H](CCc3ccc(C(F)(F)F)c(Cl)c3)C(=O)N2C1 [PP2495] |  |  |  |  | A (a compound having 10 or more and less than 20 is denoted as A) | A (a compound having 10 or more and less than 20 is denoted as A) | 7.76 |  | 9.08
CCO[C@H](C)[C@@H]1NC(=O)[C@H](CC(C)C)N(C)C(=O)C[C@@H](C(=O)N(C)C)N(C)C(=O)[C@H](C2CCCC2)N(C)C(=O)C2(CC(C)(C)C2)NC(=O)[C@@H]2C[C@H](C)CN2C(=O)[C@H](CCc2ccc(C(F)(F)F)c(OC)c2)NC(=O)CN(C)C(=O)[C@H](Cc2ccc(C)cc2)N2CC/C=C\C[C@@H](C2=O)N(C)C(=O)CN(C)C1=O [PP2412] |  |  |  |  | A (a compound having 10 or more and less than 20 is denoted as A) | B (a compound having 3 or more and less than 10 is denoted as B) | 7.68 |  | 9.82
